ChEMBL document CHEMBL2176887, “Chemokine receptor antagonists” (J Med Chem, 2012)
pKd, pKi: −log10 of the molar value.

Assays:
[1] = organism: Cavia porcellus; experiment: Inhibition of CCL3-induced immune cell recruitment in guinea pig sensitization model; type: functional, organism-based
[2] = target: T1, C-C chemokine receptor type 1 (Homo sapiens, UniProt P32246)
T1 sequence (P32246 whole entry): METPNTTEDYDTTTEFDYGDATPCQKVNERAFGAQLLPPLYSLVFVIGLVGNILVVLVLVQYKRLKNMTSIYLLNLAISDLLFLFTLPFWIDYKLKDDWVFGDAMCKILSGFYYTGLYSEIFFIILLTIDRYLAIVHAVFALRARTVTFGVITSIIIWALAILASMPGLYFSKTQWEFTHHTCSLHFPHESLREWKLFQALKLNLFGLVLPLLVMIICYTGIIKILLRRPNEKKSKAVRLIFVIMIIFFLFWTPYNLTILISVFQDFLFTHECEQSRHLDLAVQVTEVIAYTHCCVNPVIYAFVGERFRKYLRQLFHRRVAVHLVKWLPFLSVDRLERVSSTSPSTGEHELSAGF

[3] = physchem; conditions: octanol/water
Description: Lipophilicity, log P of the compound

[4] = target: C-C chemokine receptor type 5 (Homo sapiens, UniProt P51681)
[5] = Half life in rat; type: ADME, organism-based; conditions: in vivo
[6] = Oral bioavailability in dog; type: ADME, organism-based, Canis lupus familiaris; conditions: in vivo
[7] = Oral bioavailability in rat; type: ADME, organism-based; conditions: in vivo
[8] = target: T2, Muscarinic acetylcholine receptor M2 (Homo sapiens, UniProt P08172)
T2 sequence (P08172 whole entry): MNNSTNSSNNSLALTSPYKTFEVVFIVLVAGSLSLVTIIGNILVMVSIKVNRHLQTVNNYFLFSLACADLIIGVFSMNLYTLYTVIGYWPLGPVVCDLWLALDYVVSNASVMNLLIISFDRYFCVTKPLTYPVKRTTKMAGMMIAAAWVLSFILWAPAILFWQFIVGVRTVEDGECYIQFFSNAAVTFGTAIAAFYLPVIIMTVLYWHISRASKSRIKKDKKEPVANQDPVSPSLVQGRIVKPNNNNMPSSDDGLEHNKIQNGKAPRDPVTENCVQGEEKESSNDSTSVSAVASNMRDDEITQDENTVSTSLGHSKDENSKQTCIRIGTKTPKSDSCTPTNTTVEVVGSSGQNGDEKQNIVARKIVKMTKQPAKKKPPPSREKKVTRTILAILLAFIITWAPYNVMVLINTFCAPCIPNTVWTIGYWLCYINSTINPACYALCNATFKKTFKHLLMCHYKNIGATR
Description: Binding affinity to muscarinic M2 receptor

[9] = Half life in human; type: ADME, organism-based; conditions: in vivo
[10] = Binding affinity to rat CCR1 by radioligand binding assay

Chain of C-C chemokine receptor type 5 (P51681 whole entry): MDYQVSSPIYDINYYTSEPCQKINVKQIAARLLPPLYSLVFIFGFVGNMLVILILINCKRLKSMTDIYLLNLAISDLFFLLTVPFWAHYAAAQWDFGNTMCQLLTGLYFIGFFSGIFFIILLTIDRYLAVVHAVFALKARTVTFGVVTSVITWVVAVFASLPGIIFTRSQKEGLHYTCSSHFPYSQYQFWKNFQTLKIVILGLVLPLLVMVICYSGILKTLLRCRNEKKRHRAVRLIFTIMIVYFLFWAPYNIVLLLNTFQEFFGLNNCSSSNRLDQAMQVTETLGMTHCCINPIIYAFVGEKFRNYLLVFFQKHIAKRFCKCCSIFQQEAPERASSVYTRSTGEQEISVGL

pKi [2] | logP [3] | pKi [4] | half-life [5] | bioavailability [6] | bioavailability [7] | pKi [8] | Structure (SMILES) | EC50 [1] | half-life [9] | pKd [10]
8.64 | 5.1 | 9.00 | 3 h | 100% | 35% | 8.89 | CC1(C)CN(CC/C=C2/c3cc(C(=O)O)ccc3OCc3ncccc32)C[C@H](c2ccc(Cl)cc2)[C@H]1O | 0.03 mg/kg |  | 
 |  |  |  |  |  |  | C[C@@H]1CN(Cc2ccc(F)cc2)CCN1C(=O)COc1ccc(Cl)cc1NC(N)=O [BX 471 FREE BASE] |  | 2.3 h | 6.92
